Test results reported in patent publication US11053204B2, “Pyrimidinyloxy benzene derivatives as herbicides” (FMC Corporation, priority 2015, dated 2021).

What was measured:
Assay type in all cases: in vivo
[1] = test system: Italian ryegrass (Lolium multiflorum); test: Test A preemergence, visual injury rating
In short: (§1)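 Visual 0–100 rating (100 = complete control) taken about 10 d post-treatment relative to untreated checks. Preemergence: directed soil spray on sown loam/sand pots. Postemergence: seedlings 2–10 cm, 1–2 leaf. Non-phytotoxic solvent formulation with surfactant.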

[2] = test system: barnyardgrass (Echinochloa crus-galli); test: Test A preemergence, visual injury rating
In short: as §1

[3] = test system: giant foxtail (Setaria faberii); test: Test A preemergence, visual injury rating
In short: as §1

kochia (Kochia scoparia) [4] = test: Test A preemergence, visual injury rating
In short: as §1

[5] = test system: pigweed (Amaranthus retroflexus); test: Test A preemergence, visual injury rating
In short: as §1

[6] = test system: ragweed (common ragweed, Ambrosia elatior); test: Test A preemergence, visual injury rating
In short: as §1

[7] = test system: Italian ryegrass (Lolium multiflorum); test: Test A postemergence, visual injury rating; conditions: 0 is no effect, 100 is complete control; for Ryegrass, Italian plant response rating: 0 to 100 scale, approximately 10 days
In short: as §1

[8] = test system: barnyardgrass (Echinochloa crus-galli); test: Test A postemergence, visual injury rating; conditions: 0 is no effect, 100 is complete control; for Barnyardgrass plant response rating: 0 to 100 scale, approximately 10 days
In short: as §1

[9] = test system: blackgrass (Alopecurus myosuroides); test: Test A postemergence, visual injury rating; conditions: 0 is no effect, 100 is complete control; for Blackgrass plant response rating: 0 to 100 scale, approximately 10 days
In short: as §1

corn (Zea mays) = test: Test A postemergence, visual injury rating; conditions: 0 is no effect, 100 is complete control; for Corn plant response rating: 0 to 100 scale, approximately 10 days
In short: as §1

[10] = test system: galium (catchweed bedstraw, Galium aparine); test: Test A postemergence, visual injury rating; conditions: 0 is no effect, 100 is complete control; for Galium plant response rating: 0 to 100 scale, approximately 10 days
In short: as §1

[11] = test system: giant foxtail (Setaria faberii); test: Test A postemergence, visual injury rating; conditions: 0 is no effect, 100 is complete control; for Foxtail, Giant plant response rating: 0 to 100 scale, approximately 10 days
In short: as §1

kochia (Kochia scoparia) [12] = test: Test A postemergence, visual injury rating; conditions: 0 is no effect, 100 is complete control; for Kochia plant response rating: 0 to 100 scale, approximately 10 days
In short: as §1

[13] = test system: pigweed (Amaranthus retroflexus); test: Test A postemergence, visual injury rating; conditions: 0 is no effect, 100 is complete control; for Pigweed plant response rating: 0 to 100 scale, approximately 10 days
In short: as §1

[14] = test system: ragweed (common ragweed, Ambrosia elatior); test: Test A postemergence, visual injury rating; conditions: 0 is no effect, 100 is complete control; for Ragweed plant response rating: 0 to 100 scale, approximately 10 days
In short: as §1

[15] = test system: wheat (Triticum aestivum); test: Test A postemergence, visual injury rating; conditions: 0 is no effect, 100 is complete control; for Wheat plant response rating: 0 to 100 scale, approximately 10 days
In short: as §1

[16] = test system: barnyardgrass (Echinochloa crus-galli); test: Test B flooded paddy test, plant response rating; conditions: 250 g ai/ha; Flood; scale of 0 to 100 where 0 is no effect and 100 is complete control; 13 to 15 days
In short: (§2)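 Flooded 3 cm over soil; compound into paddy water; depth kept constant. Greenhouse 13–15 d.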

[17] = test system: ducksalad (Heteranthera limosa); test: Test B flooded paddy test, plant response rating; conditions: 250 g ai/ha; Flood; scale of 0 to 100 where 0 is no effect and 100 is complete control; 13 to 15 days
In short: as §2

rice (Oryza sativa) = test: Test B flooded paddy test, plant response rating; conditions: 250 g ai/ha; Flood; scale of 0 to 100 where 0 is no effect and 100 is complete control; 13 to 15 days
In short: as §2

[18] = test system: sedge, umbrella (small-flower umbrella sedge, Cyperus difformis); test: Test B flooded paddy test, plant response rating; conditions: 250 g ai/ha; Flood; scale of 0 to 100 where 0 is no effect and 100 is complete control; 13 to 15 days
In short: as §2

[19] = 31 g ai/ha, 0 to 100 scale, 0 no effect, 100 complete control
[20] = 125 g ai/ha, 0 to 100 scale (0 no effect, 100 complete control)

| Structure (SMILES) | Plant response rating, Ryegrass, Italian [1, 19] | Plant response rating, Barnyardgrass [2, 19] | Plant response rating, Foxtail, Giant [3, 19] | Plant response rating, Kochia (kochia (Kochia scoparia) [4]; [19]) | Plant response rating, Pigweed [5, 19] | Plant response rating, Ragweed [6, 19] | Ryegrass, Italian plant response rating ([7]; 31 g ai/ha) | Barnyardgrass plant response rating ([8]; 31 g ai/ha) | Blackgrass plant response rating ([9]; 31 g ai/ha) | Corn plant response rating (corn (Zea mays); 31 g ai/ha) | Galium plant response rating ([10]; 31 g ai/ha) | Foxtail, Giant plant response rating ([11]; 31 g ai/ha) | Kochia plant response rating (kochia (Kochia scoparia) [12]; 31 g ai/ha) | Pigweed plant response rating ([13]; 31 g ai/ha) | Ragweed plant response rating ([14]; 31 g ai/ha) | Wheat plant response rating ([15]; 31 g ai/ha) | Plant response rating, Barnyardgrass [16] | Plant response rating, Ducksalad [17] | Plant response rating, Rice (rice (Oryza sativa)) | Plant response rating, Sedge, Umbrella [18] | other results |
| --- | --- | --- | --- | --- | --- | --- | --- | --- | --- | --- | --- | --- | --- | --- | --- | --- | --- | --- | --- | --- | --- |
| COc1cccc(Oc2ncc(Cl)cn2)c1C(C)=O [Compound 51] | 0 | 0 | 0 | 0 | 0 | 0 | 0 | 0 | 0 | 0 | 0 | 0 | 0 | 0 | 0 | 0 | 15 | 0 | 15 | 0 | Ryegrass, Italian plant response rating [1, 20]: 0; Barnyardgrass plant response rating [2, 20]: 0; Foxtail, Giant plant response rating [3, 20]: 0; Kochia plant response rating (kochia (Kochia scoparia) [4]; [20]): 0; Pigweed plant response rating [5, 20]: 0; Ragweed plant response rating [6, 20]: 0; Ryegrass, Italian plant response rating (0 to 100 scale) ([7]; 125 g ai/ha): 0; Barnyardgrass plant response rating (0 to 100 scale) ([8]; 125 g ai/ha): 0; Blackgrass plant response rating (0 to 100 scale) ([9]; 125 g ai/ha): 0; Corn plant response rating (0 to 100 scale) (corn (Zea mays); 125 g ai/ha): 0; Galium plant response rating (0 to 100 scale) ([10]; 125 g ai/ha): 10; Foxtail, Giant plant response rating (0 to 100 scale) ([11]; 125 g ai/ha): 0; Kochia plant response rating (0 to 100 scale) (kochia (Kochia scoparia) [12]; 125 g ai/ha): 0; Pigweed plant response rating (0 to 100 scale) ([13]; 125 g ai/ha): 0; Ragweed plant response rating (0 to 100 scale) ([14]; 125 g ai/ha): 0; Wheat plant response rating (0 to 100 scale) ([15]; 125 g ai/ha): 0 |
| O=C(OCC(Cl)(Cl)Cl)c1c(Br)cccc1Oc1ncc(Cl)cn1 [Compound 45] | 0 | 0 | 0 | 0 | 0 | 0 | 0 | 20 | 0 | 0 | 50 | 20 | 20 | 80 | 10 | 0 | 0 | 0 | 0 | 0 | Ryegrass, Italian plant response rating [1, 20]: 0; Barnyardgrass plant response rating [2, 20]: 0; Foxtail, Giant plant response rating [3, 20]: 10; Kochia plant response rating (kochia (Kochia scoparia) [4]; [20]): 0; Pigweed plant response rating [5, 20]: 70; Ragweed plant response rating [6, 20]: 0; Ryegrass, Italian plant response rating (0 to 100 scale) ([7]; 125 g ai/ha): 0; Barnyardgrass plant response rating (0 to 100 scale) ([8]; 125 g ai/ha): 20; Blackgrass plant response rating (0 to 100 scale) ([9]; 125 g ai/ha): 0; Corn plant response rating (0 to 100 scale) (corn (Zea mays); 125 g ai/ha): 20; Galium plant response rating (0 to 100 scale) ([10]; 125 g ai/ha): 100; Foxtail, Giant plant response rating (0 to 100 scale) ([11]; 125 g ai/ha): 20; Kochia plant response rating (0 to 100 scale) (kochia (Kochia scoparia) [12]; 125 g ai/ha): 50; Pigweed plant response rating (0 to 100 scale) ([13]; 125 g ai/ha): 100; Ragweed plant response rating (0 to 100 scale) ([14]; 125 g ai/ha): 10; Wheat plant response rating (0 to 100 scale) ([15]; 125 g ai/ha): 0 |
| CC(C)Oc1cccc(Oc2ncc(Cl)cn2)c1C(=O)OCCC(F)(F)F [Compound 115] | 0 | 0 | 0 | 70 | 0 | 20 | 0 | 0 | 0 | 0 | 20 | 0 | 0 | 10 | 0 | 0 | 0 | 0 | 0 | 0 | Plant response rating, Ryegrass, Italian [1, 20]: 0; Plant response rating, Barnyardgrass [2, 20]: 0; Plant response rating, Foxtail, Giant [3, 20]: 0; Plant response rating, Kochia (kochia (Kochia scoparia) [4]; [20]): 0; Plant response rating, Pigweed [5, 20]: 0; Plant response rating, Ragweed [6, 20]: 0; Ryegrass, Italian plant response rating ([7]; 125 g ai/ha): 0; Barnyardgrass plant response rating ([8]; 125 g ai/ha): 0; Blackgrass plant response rating ([9]; 125 g ai/ha): 20; Corn plant response rating (corn (Zea mays); 125 g ai/ha): 10; Galium plant response rating ([10]; 125 g ai/ha): 20; Foxtail, Giant plant response rating ([11]; 125 g ai/ha): 0; Kochia plant response rating (kochia (Kochia scoparia) [12]; 125 g ai/ha): 0; Pigweed plant response rating ([13]; 125 g ai/ha): 40; Ragweed plant response rating ([14]; 125 g ai/ha): 0; Wheat plant response rating ([15]; 125 g ai/ha): 0 |
